Experimental data published in patent publication US20130345418A1, “PROCESS FOR PURIFICATION OF APREPITANT” (HETERO DRUGS LIMITED, priority 2006, published 2013).
Read-outs that look alike come from different tables or passages of the source.

What was measured:
[1] = dissolution rate of amorphous versus crystalline aprepitant; assay type: physicochemical; conditions: compared with the known crystalline aprepitant
[2] = mean particle size of aprepitant; assay type: physicochemical; conditions: crystallized from ethyl acetate (Example 1)
[3] = aprepitant produced by the processes described in the prior art; cited from earlier work

Compound: C[C@@H](O[C@H]1OCCN(Cc2n[nH]c(=O)[nH]2)[C@H]1c1ccc(F)cc1)c1cc(C(F)(F)F)cc(C(F)(F)F)c1 [amorphous aprepitant, 5-[[(2R,3S)-2-[(1R)-1-[3,5-bis(trifluoromethyl)phenyl]ethoxy]-3-(4-fluorophenyl)-4-morpholinyl]methyl]-1,2-dihydro-3H-1,2,4-triazol-3-one]
- dissolution rate [1]: better dissolution rate than the known crystalline aprepitant

Compound: C[C@@H](O[C@H]1OCCN(Cc2n[nH]c(=O)[nH]2)[C@H]1c1ccc(F)cc1)c1cc(C(F)(F)F)cc(C(F)(F)F)c1 [aprepitant, 5-[[(2R,3S)-2-[(1R)-1-[3,5-bis(trifluoromethyl)phenyl]ethoxy]-3-(4-fluorophenyl)-4-morpholinyl]methyl]-1,2-dihydro-3H-1,2,4-triazol-3-one]
- mean particle size [2]: 4.95 microns
- mean particle size [3]: about 12 microns
